The nature of data set [1]: Biodistribution in mice bearing PC-3 xenografts. The data set is classed as in vivo, mice (BALB/c nu/nu female). As to conditions: mouse, in vivo, iv, 40 pmol, 40 pmol i.v., 1 h pi, 4 mice, SD; read-out: activity concentration in blood 1 h pi. How it is done:
(§1) Instant thin-layer chromatography (ITLC) results were analyzed using Cyclone® Plus (PerkinElmer). […] BALB/c nu/nu female mice were implanted subcutaneously with PC-3 cells in PBS (6.5 × 10^6 cells/mouse) on the hind leg. […] A group of four mice was used per data point. […] After euthanization, the organs of interest were collected and weighed, and the radioactivity content was measured on a gamma counter.

The test system of a further data set is PC-3 xenografts. The data set is described as follows: Biodistribution in mice bearing PC-3 xenografts. Format: in vivo, mice (BALB/c nu/nu female). As for the experimental part:
as §1

The next data set deals with GRPR (Homo sapiens, UniProt P30550). Briefly: Competitive binding (IC50) assay on PC-3 cells. Details: host or cells: PC-3 prostate carcinoma cells. Conditions: vs 1 nM [^111In]In-NOTA-PEG4-RM26, PC-3 cells, 0-10 µM, 4 °C, 5 h, n = 3, SD. How it is done: Prostate carcinoma cell line PC-3 (GRPR positive) was purchased from ATCC, Manassas, VA, USA. […] PC-3 cells (5 × 10^5 cells/well) were plated on 12-well plates one day before the competitive binding assays. […] On the day of the experiment, the cells were washed, and 1 nM of [^111In]In-NOTA-PEG4-RM26 was added to each well along with a series of concentrations ranging between 0-10 μM of the competing conjugate. The dishes were incubated at 4 °C for 5 h. The cells were then washed and treated with trypsin-EDTA until cell detachment. The cells were collected, and the radioactivity content was measured using a gamma counter.

Data set [2] addresses gastrin-releasing peptide receptor (human (endogenous in PC-3)) (UniProt P30550). The data set is described as follows: radioligand binding.
Data set [3] can be described thus: Thermal melting by circular dichroism. Conditions: pH 7.4. The data set is classed as physicochemical.
Data set [4] is described as follows: Circular dichroism, secondary structure/helicity. Format: physicochemical. How it is done:
The secondary structures of ABD035, DOTA-ABD-Cl and DOTA-ABD-RM26 were determined by circular dichroism spectroscopy (Chirascan, Applied Photophysics, Leatherhead, UK). All CD spectra were obtained at 20 °C using a protein concentration of 0.2 mg/mL in 20 mM potassium phosphate buffer with 100 mM KCl pH 7.4. To estimate the percentage of helicity in each construct, the measured ellipticity (θobs) was first converted to the mean residue ellipticity (MRE) using the following formula MRE = θobs/10 × l × C × n, where l is the pathlength in cm, C is the peptide concentration in the molar, and n is the number of residues in each construct. From the mean residue ellipticity at 222 nm, MRE222, the fraction helix, FH, was calculated using the following formula, FH = (MRE222 − [θ]C)/([θ]H − [θ]C). [θ]H and [θ]C are given by [θ]H = 40,000 × (1 − (2.5/n) + 100 × T, and [θ]C = 640 − 45 × T. T is given in °C, here 20, and n is the number of residues in each construct (Scholtz 1991).
Background: Circular dichroism is widely used to follow secondary structure.

This is an account of results in publication PMC7594083, “Preclinical Evaluation of the GRPR-Targeting Antagonist RM26 Conjugated to the Albumin-Binding Domain for GRPR-Targeting Therapy of Cancer” (Pharmaceutics, 2020).

Read-outs that look alike come from different tables or passages of the source.

GRPR, sequence (P30550 whole entry): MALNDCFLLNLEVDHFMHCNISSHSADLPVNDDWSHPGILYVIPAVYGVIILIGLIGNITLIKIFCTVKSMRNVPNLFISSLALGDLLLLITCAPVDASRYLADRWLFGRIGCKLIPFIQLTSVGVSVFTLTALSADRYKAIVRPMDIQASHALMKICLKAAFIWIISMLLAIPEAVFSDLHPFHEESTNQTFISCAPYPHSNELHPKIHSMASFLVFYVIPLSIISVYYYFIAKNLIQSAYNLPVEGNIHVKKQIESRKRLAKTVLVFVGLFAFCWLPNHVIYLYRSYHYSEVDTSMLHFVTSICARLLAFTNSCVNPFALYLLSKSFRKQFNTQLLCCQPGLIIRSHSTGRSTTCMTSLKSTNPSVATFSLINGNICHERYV
gastrin-releasing peptide receptor (human (endogenous in PC-3)), sequence (P30550 whole entry): as above

Regarding `CC(C)C[C@H](NC(=O)C[C@H](O)[C@H](CC(C)C)NC(=O)[C@H](Cc1c[nH]cn1)NC(=O)CNC(=O)[C@@H](NC(=O)[C@H](C)NC(=O)[C@H](Cc1c[nH]c2ccccc12)NC(=O)[C@H](CCC(N)=O)NC(=O)[C@@H](Cc1ccccc1)NC(=O)COCCOCCNC(=O)CN1CCN(CC(=O)O)CCN(CC(=O)O)CCN(CC(=O)O)CC1)C(C)C)C(N)=O` [[^111In]In-DOTA-RM26, metal not drawn, reference compound], the tissue uptake at 1 h in data set [1] was 0.27 ± 0.04 %ID/g. Besides, in the data set with PC-3 xenografts (1 h pi), the “pancreas and tumor uptake, [^111In]In-DOTA-ABD-RM26 vs [^111In]In-DOTA-RM26” value is “on the same level for both radiolabelled conjugates”.

For the compound `CC[C@H](C)[C@H](NC(=O)[C@H](Cc1c[nH]cn1)NC(=O)[C@H](CC(C)C)NC(=O)[C@H](CCCCN)NC(=O)[C@H](CC(C)C)NC(=O)[C@H](C)NC(=O)[C@H](CCC(=O)O)NC(=O)[C@@H](NC(=O)CNC(=O)[C@H](CCC(=O)O)NC(=O)[C@@H](NC(=O)[C@@H](NC(=O)[C@H](CCCCN)NC(=O)[C@H](C)NC(=O)[C@H](CCCCN)NC(=O)[C@H](CC(N)=O)NC(=O)[C@@H](NC(=O)[C@H](CC(C)C)NC(=O)[C@H](CCCNC(=N)N)NC(=O)[C@H](CCCCN)NC(=O)[C@H](Cc1ccc(O)cc1)NC(=O)[C@H](Cc1ccccc1)NC(=O)[C@H](CC(=O)O)NC(=O)[C@H](CO)NC(=O)[C@@H](NC(=O)CNC(=O)[C@H](Cc1ccc(O)cc1)NC(=O)[C@H](CCCCNC(=O)CSCCC(=O)NCCOCCOCCOCCOCCC(=O)N[C@H](Cc1ccccc1)C(=O)N[C@@H](CCC(N)=O)C(=O)N[C@@H](Cc1c[nH]c2ccccc12)C(=O)N[C@@H](C)C(=O)N[C@H](C(=O)NCC(=O)N[C@@H](Cc1c[nH]cn1)C(=O)N[C@@H](CC(C)C)[C@@H](O)CC(=O)N[C@@H](CC(C)C)C(N)=O)C(C)C)NC(=O)[C@H](CC(=O)O)NC(=O)[C@H](CC(C)C)NC(=O)[C@H](CCC(=O)O)NC(=O)[C@H](CCCNC(=N)N)NC(=O)[C@H](CC(N)=O)NC(=O)[C@H](C)NC(=O)[C@H](CC(C)C)NC(=O)[C@@H](NC(=O)[C@H](CCCCN)NC(=O)[C@H](C)NC(=O)[C@H](CCC(=O)O)NC(=O)[C@H](C)NC(=O)[C@H](CC(C)C)NC(=O)CN1CCN(CC(=O)O)CCN(CC(=O)O)CCN(CC(=O)O)CC1)C(C)C)C(C)C)[C@@H](C)CC)[C@@H](C)O)C(C)C)C(C)C)C(=O)N[C@@H](CC(C)C)C(=O)N[C@@H](C)C(=O)N[C@@H](C)C(=O)N[C@@H](CC(C)C)C(=O)N1CCC[C@H]1C(N)=O` [^natIn-DOTA-ABD-RM26, metal not drawn], the IC50 is 49 ± 5 nM on GRPR (10-fold molar excess of HSA, read-out: half-maximal inhibitory concentration (IC50) in the presence of HSA) and 30 ± 3 nM on GRPR (without HSA, read-out: half-maximal inhibitory concentration (IC50)).

As to “DOTA-ABD-RM26 bound to human serum albumin (from UniProt P02768 25-609) (complex)”, in data set [2], the IC50 stood at 49 nM.

Consider DOTA-ABD-RM26 (designed binder), for which the IC50 in data set [2] came to 30 nM.

Turning to `CC[C@H](C)[C@H](NC(=O)[C@H](Cc1c[nH]cn1)NC(=O)[C@H](CC(C)C)NC(=O)[C@H](CCCCN)NC(=O)[C@H](CC(C)C)NC(=O)[C@H](C)NC(=O)[C@H](CCC(=O)O)NC(=O)[C@@H](NC(=O)CNC(=O)[C@H](CCC(=O)O)NC(=O)[C@@H](NC(=O)[C@@H](NC(=O)[C@H](CCCCN)NC(=O)[C@H](C)NC(=O)[C@H](CCCCN)NC(=O)[C@H](CC(N)=O)NC(=O)[C@@H](NC(=O)[C@H](CC(C)C)NC(=O)[C@H](CCCNC(=N)N)NC(=O)[C@H](CCCCN)NC(=O)[C@H](Cc1ccc(O)cc1)NC(=O)[C@H](Cc1ccccc1)NC(=O)[C@H](CC(=O)O)NC(=O)[C@H](CO)NC(=O)[C@@H](NC(=O)CNC(=O)[C@H](Cc1ccc(O)cc1)NC(=O)[C@H](CCCCNC(=O)CSCCC(=O)NCCOCCOCCOCCOCCC(=O)N[C@H](Cc1ccccc1)C(=O)N[C@@H](CCC(N)=O)C(=O)N[C@@H](Cc1c[nH]c2ccccc12)C(=O)N[C@@H](C)C(=O)N[C@H](C(=O)NCC(=O)N[C@@H](Cc1c[nH]cn1)C(=O)N[C@@H](CC(C)C)[C@@H](O)CC(=O)N[C@@H](CC(C)C)C(N)=O)C(C)C)NC(=O)[C@H](CC(=O)O)NC(=O)[C@H](CC(C)C)NC(=O)[C@H](CCC(=O)O)NC(=O)[C@H](CCCNC(=N)N)NC(=O)[C@H](CC(N)=O)NC(=O)[C@H](C)NC(=O)[C@H](CC(C)C)NC(=O)[C@@H](NC(=O)[C@H](CCCCN)NC(=O)[C@H](C)NC(=O)[C@H](CCC(=O)O)NC(=O)[C@H](C)NC(=O)[C@H](CC(C)C)NC(=O)CN1CCN(CC(=O)O)CCN(CC(=O)O)CCN(CC(=O)O)CC1)C(C)C)C(C)C)[C@@H](C)CC)[C@@H](C)O)C(C)C)C(C)C)C(=O)N[C@@H](CC(C)C)C(=O)N[C@@H](C)C(=O)N[C@@H](C)C(=O)N[C@@H](CC(C)C)C(=O)N1CCC[C@H]1C(N)=O` [DOTA-ABD-RM26], the “uptake in pancreas, intestines and xenografts, ABD-coupled vs parental RM26” value with PC-3 xenografts (1 h pi, discussion) is “activity uptake was equal both for ABD-coupled and parental RM26”. Further, in the data set on PC-3 xenografts (all studied time points, 1-144 h pi), the “kidney uptake vs tumor uptake” value is reported as “higher than that in tumors at all studied time points”. For the same compound, the “uptake in liver and bone” value in the data set with PC-3 xenografts (up to 144 h pi) is listed as “elevated up to 144 h pi”.

Consider “AMALAEAKVLANRELDKYGVSDFYKRLINKAKTVEGVEALKLHILAALP [ABD035, recombinant control protein, reference compound]”, for which, in data set [3], the “melting temperature (Tm)” value was 54 °C.

Regarding `CC[C@H](C)[C@H](NC(=O)[C@H](Cc1c[nH]cn1)NC(=O)[C@H](CC(C)C)NC(=O)[C@H](CCCCN)NC(=O)[C@H](CC(C)C)NC(=O)[C@H](C)NC(=O)[C@H](CCC(=O)O)NC(=O)[C@@H](NC(=O)CNC(=O)[C@H](CCC(=O)O)NC(=O)[C@@H](NC(=O)[C@@H](NC(=O)[C@H](CCCCN)NC(=O)[C@H](C)NC(=O)[C@H](CCCCN)NC(=O)[C@H](CC(N)=O)NC(=O)[C@@H](NC(=O)[C@H](CC(C)C)NC(=O)[C@H](CCCNC(=N)N)NC(=O)[C@H](CCCCN)NC(=O)[C@H](Cc1ccc(O)cc1)NC(=O)[C@H](Cc1ccccc1)NC(=O)[C@H](CC(=O)O)NC(=O)[C@H](CO)NC(=O)[C@@H](NC(=O)CNC(=O)[C@H](Cc1ccc(O)cc1)NC(=O)[C@H](CCCCNC(=O)CCl)NC(=O)[C@H](CC(=O)O)NC(=O)[C@H](CC(C)C)NC(=O)[C@H](CCC(=O)O)NC(=O)[C@H](CCCNC(=N)N)NC(=O)[C@H](CC(N)=O)NC(=O)[C@H](C)NC(=O)[C@H](CC(C)C)NC(=O)[C@@H](NC(=O)[C@H](CCCCN)NC(=O)[C@H](C)NC(=O)[C@H](CCC(=O)O)NC(=O)[C@H](C)NC(=O)[C@H](CC(C)C)NC(=O)CN1CCN(CC(=O)O)CCN(CC(=O)O)CCN(CC(=O)O)CC1)C(C)C)C(C)C)[C@@H](C)CC)[C@@H](C)O)C(C)C)C(C)C)C(=O)N[C@@H](CC(C)C)C(=O)N[C@@H](C)C(=O)N[C@@H](C)C(=O)N[C@@H](CC(C)C)C(=O)N1CCC[C@H]1C(N)=O` [DOTA-ABD-Cl], in data set [4] (20 °C, 0.2 mg/mL, 20 mM potassium phosphate with 100 mM KCl pH 7.4), the CD spectrum pattern entry is “characteristic alpha-helical pattern”. Also, in data set [4] (from MRE222, 20 °C, 0.2 mg/mL, 20 mM potassium phosphate with 100 mM KCl pH 7.4, helix-coil theory), the helicity result was “approximately 60%”. In addition, the “residues in helical conformation” value in data set [4] (from MRE222, 20 °C, pH 7.4, out of 49 (ABD035), 46 (DOTA-ABD-Cl), 56 (ABD-RM26) residues) came to 27 residues. In addition, the “melting temperature (Tm)” value in data set [3] (CD, 0.2 mg/mL in 20 mM potassium phosphate, 100 mM KCl, estimated (only roughly for DOTA-ABD-RM26)) is 50 °C.
